According to US20160355530A1, “HEPATITIS C INHIBITORS AND USES THEREOF” (AbbVie Inc., priority 2010, published 2016):
pEC50, pIC50: −log10 of the molar value. Where two headings read alike, the source gives them in different places.

Columns and labels:
[1] = target: T1, HCV NS5B polymerase 1a-H77 (Hepatitis C virus genotype 1a, UniProt P27958); test: biochemical; design: species or system HCV genotype 1a; details: enzyme, strain 1a H77; read-out: HCV Polymerase Strain 1a H77 IC50
T1 construct: six-histidine tag; made in house; host or cells: E. coli
T1 sequence (P27958 2421-2990): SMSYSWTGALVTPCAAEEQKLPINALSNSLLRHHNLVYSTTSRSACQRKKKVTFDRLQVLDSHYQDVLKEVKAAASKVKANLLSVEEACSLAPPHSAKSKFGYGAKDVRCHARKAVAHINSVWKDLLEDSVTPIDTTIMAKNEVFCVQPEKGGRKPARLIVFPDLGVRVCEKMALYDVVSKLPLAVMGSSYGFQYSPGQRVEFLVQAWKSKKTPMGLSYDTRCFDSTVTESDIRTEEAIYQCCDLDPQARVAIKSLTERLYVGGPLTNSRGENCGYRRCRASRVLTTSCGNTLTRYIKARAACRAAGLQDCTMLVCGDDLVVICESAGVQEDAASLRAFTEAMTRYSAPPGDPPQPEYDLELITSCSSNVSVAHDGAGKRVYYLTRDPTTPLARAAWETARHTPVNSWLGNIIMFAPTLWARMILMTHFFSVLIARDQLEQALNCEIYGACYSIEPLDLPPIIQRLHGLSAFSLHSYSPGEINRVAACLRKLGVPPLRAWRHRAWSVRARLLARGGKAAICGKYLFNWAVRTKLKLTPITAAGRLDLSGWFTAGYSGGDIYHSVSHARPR
How it was run: (§1)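 Incorporation of [3H]UTP (0.284 μM), alongside 20 μM each CTP and ATP, into RNA copied from a 5 nM 2.1 kb genotype 1b negative-strand template was measured after 3 h at 30° C using purified His-tagged NS5B truncated at residue 570. Product was spermine-precipitated, filtered and scintillation-counted; nonlinear regression gave IC50.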

[2] = target: T2, HCV NS5B polymerase 1a-H77-C316Y (Hepatitis C virus genotype 1a, UniProt P27958, C2736Y); test: biochemical; design: species or system HCV genotype 1a
T2 construct: six-histidine tag; made in house; host or cells: E. coli
T2 sequence (P27958 2421-2990 C2736Y): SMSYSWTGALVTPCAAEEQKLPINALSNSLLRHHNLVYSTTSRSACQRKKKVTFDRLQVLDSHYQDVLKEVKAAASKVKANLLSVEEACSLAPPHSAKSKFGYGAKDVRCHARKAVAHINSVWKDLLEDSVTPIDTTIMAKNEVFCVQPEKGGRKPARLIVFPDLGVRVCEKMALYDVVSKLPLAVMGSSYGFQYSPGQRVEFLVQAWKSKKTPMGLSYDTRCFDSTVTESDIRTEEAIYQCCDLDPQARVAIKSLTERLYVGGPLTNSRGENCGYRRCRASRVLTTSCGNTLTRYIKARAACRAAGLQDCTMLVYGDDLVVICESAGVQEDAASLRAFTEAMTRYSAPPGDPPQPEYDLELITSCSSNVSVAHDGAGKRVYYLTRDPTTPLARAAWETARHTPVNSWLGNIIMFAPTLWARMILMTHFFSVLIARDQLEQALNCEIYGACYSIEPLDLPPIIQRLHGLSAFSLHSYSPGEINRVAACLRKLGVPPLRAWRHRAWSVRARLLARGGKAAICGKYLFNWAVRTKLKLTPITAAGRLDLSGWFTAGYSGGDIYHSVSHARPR
How it was run: as §1

[3] = system: HCV NS5B polymerase 1a-H77-C316Y; test: biochemical; design: species or system HCV genotype 1a; details: ratio of enzyme IC50s, 1a H77-C316Y / 1a H77
How it was run: as §1

[4] = target: T3, HCV NS5B polymerase 1b BK strain (Hepatitis C virus genotype 1b, UniProt P26663); test: HCV NS5B polymerase enzymatic inhibition assay, strain 1b BK; format: biochemical; details: enzyme, strain 1b BK; read-out: HCV Polymerase Strain 1b BK IC50
T3 construct: six-histidine tag; made in house; host or cells: E. coli
T3 sequence (P26663 2420-2989): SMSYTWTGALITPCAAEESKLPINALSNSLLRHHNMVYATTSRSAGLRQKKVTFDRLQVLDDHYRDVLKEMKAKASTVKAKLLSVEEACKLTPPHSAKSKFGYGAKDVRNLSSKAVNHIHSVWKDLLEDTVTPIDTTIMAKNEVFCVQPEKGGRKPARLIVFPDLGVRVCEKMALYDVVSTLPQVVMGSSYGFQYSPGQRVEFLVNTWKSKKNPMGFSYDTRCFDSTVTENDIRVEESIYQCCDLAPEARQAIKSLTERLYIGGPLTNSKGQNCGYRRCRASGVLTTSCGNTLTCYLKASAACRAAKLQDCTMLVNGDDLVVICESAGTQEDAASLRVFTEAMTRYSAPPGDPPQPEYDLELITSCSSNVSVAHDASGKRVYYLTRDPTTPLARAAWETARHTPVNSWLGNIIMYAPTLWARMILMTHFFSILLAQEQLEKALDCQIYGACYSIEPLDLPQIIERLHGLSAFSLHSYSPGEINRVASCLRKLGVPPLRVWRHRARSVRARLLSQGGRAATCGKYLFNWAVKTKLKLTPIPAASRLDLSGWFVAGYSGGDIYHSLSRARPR
How it was run: as §1

[5] = system: HCV 1a-H77 subgenomic replicon; test: microbe, parasite or virus in culture; format: cell-based, HCV genotype 1a; details: Hepatitis C virus, stable replicon
[6] = system: HCV 1b-BB7 subgenomic replicon; test: microbe, parasite or virus in culture; format: cell-based, HCV genotype 1b; details: Hepatitis C virus, stable replicon
[7] = system: chimeric replicon with 2a-J6CF-derived NS5B; test: microbe, parasite or virus in culture; format: cell-based, HCV genotype 2a; details: Hepatitis C virus, read-out: 2a chimera 5% FBS EC50
[8] = system: chimeric replicon with genotype 2b NS5B; test: microbe, parasite or virus in culture; format: cell-based, HCV genotype 2b; details: Hepatitis C virus, read-out: 2b chimera 5% FBS EC50
[9] = system: chimeric replicon with genotype 4a NS5B; test: microbe, parasite or virus in culture; format: cell-based, HCV genotype 4a; details: Hepatitis C virus, read-out: 4a chimera 5% FBS EC50
[10] = system: HCV 1a-H77 transient subgenomic replicon in Huh-7 derived cell line; test: microbe, parasite or virus in culture; format: cell-based, HCV genotype 1a; details: Hepatitis C virus, Huh-7; transient replicon, 5% FBS; read-out: Transient Replicon 1a H77 5% FBS EC50
Experimental: (§2) In addition to the stable replicon inhibition assays, transient replicon assays were performed. Transient replicons are identical to the 1a-H77 and 1a-H77-C316Y constructs, except they lack the Neo gene, making it impossible to establish stable cell lines. A T7 Megascript RNA synthesis kit (Ambion) was used to transcribe the HCV subgenomic RNA. The HCV RNA was then precipitated with lithium chloride according to manufacturer's instructions. The HCV subgenomic replicon RNA was transfected via electroporation into a Huh-7 derived cell line as described (Middleton T, et al. J. Virological Methods 2007; 145(2): 137-145). Transfected cells were diluted and plated in 96 well plates at 5×10^3 cells per well in DMEM. Four hours post-transfection, the wells from one plate were harvested for luciferase measurement. This plate provides a measure of the amount of translatable input RNA, and therefore transfection efficiency. To the wells of the remaining plates, a 3-fold dilution series of test compounds was added in DMSO (0.5% DMSO final concentration), and plates were incubated at 37° C., 5% CO2 in a humidified incubator for 4 days. After this period, the media was removed and the plates were washed with 100 μL phosphate-buffered saline per well. For the luciferase assay, 30 μL of Passive Lysis buffer (Promega) was added to each well, and then the plates were incubated for 15 minutes with rocking to lyse the cells. Luciferin solution (100 μL, Promega) was added to each well, and luciferase activity was measured with a Victor II luminometer (Perkin-Elmer). The EC50 values were calculated using GraphPad Prism 4 software.

[11] = system: HCV 1a-H77-C316Y transient subgenomic replicon in Huh-7 derived cell line; test: microbe, parasite or virus in culture; format: cell-based, HCV genotype 1a; details: for pEC50: Hepatitis C virus, Huh-7, read-out: Transient Replicon 1a H77-C316Y 5% FBS EC50; for Transient Replicon Fold Resistance C316Y/1a: ratio of transient replicon EC50s, C316Y / 1a H77
Experimental: as §2

[12] = system: chimeric replicon with genotype 3a NS5B; test: microbe, parasite or virus in culture; format: cell-based, HCV genotype 3a; details: Hepatitis C virus, read-out: 3a chimera 5% FBS EC50
[13] = 5% FBS, absence of human plasma, read-out: Stable Replicon 1a H77 5% FBS EC50
[14] = strain 1a H77, 5% FBS + 40% human plasma, read-out: 1a H77 5% FBS + 40% Human Plasma EC50
[15] = strain 1a H77, 5% FBS, no human plasma, read-out: 1a H77 5% FBS EC50
[16] = strain 1a H77, 5% FBS, read-out: 1a H77 5% FBS EC50
[17] = strain 1b BB7, 5% FBS + 40% human plasma, read-out: 1b BB7 5% FBS + 40% Human Plasma EC50
[18] = strain 1b BB7, 5% FBS, no human plasma, read-out: 1b BB7 5% FBS EC50
[19] = strain 1b BB7, 5% FBS, read-out: 1b BB7 5% FBS EC50

SMILES | pIC50 [1] | pIC50 [2] | C316Y/1a Fold Resistance [3] [fold] | pIC50 [4] | pEC50 [5, 13] | pEC50 [5, 14] | pEC50 [5, 15] | pEC50 [5, 16] | pEC50 [6, 17] | pEC50 [6, 18] | pEC50 [6, 19] | pEC50 [7] | pEC50 [8] | pEC50 [9] | pEC50 [10] | pEC50 [11] | Transient Replicon Fold Resistance C316Y/1a [11] [fold] | pEC50 [12]
CS(=O)(=O)N(Cc1cnc(-c2ccc3[nH]ccc3c2)s1)c1cc2oc(-c3ccc(F)cc3)c(-c3ncc[nH]3)c2cc1C1CC1 [Example 31, N-[5-cyclopropyl-2-(4-fluorophenyl)-3-(1H-imidazol-2-yl)-1-benzofuran-6-yl]-N-{[2-(1H-indol-5-yl)-1,3-thiazol-5-yl]methyl}methanesulfonamide] | 8.46 | 6.76 | 50 | 8.15 | 7.38 | 6.42 | 7.38 | 7.38 | 6.70 | 7.55 | 7.55 | 6.73 | 6.82 | 7.08 | 7.51 | 6.08 | 27 | 
CC(C)CN(c1cc2oc(-c3ccc(F)cc3)c(-c3ncc[nH]3)c2cc1C1CC1)S(C)(=O)=O [Example 66, N-[5-cyclopropyl-2-(4-fluorophenyl)-3-(1H-imidazol-2-yl)-1-benzofuran-6-yl]-N-isobutylmethanesulfonamide] | 8.23 | 6.05 | 152 | 7.15 | 7.22 | 6.17 | 7.22 | 7.22 | 6.24 | 7.25 | 7.25 | 6.67 | 6.53 | 6.50 | 7.16 |  |  | 7.08
CS(=O)(=O)N(CCCC(=O)O)c1cc2oc(-c3ccc(F)cc3)c(C3=NOCCN3)c2cc1C1CC1 [Example 135, 4-{[5-cyclopropyl-3-(5,6-dihydro-4H-1,2,4-oxadiazin-3-yl)-2-(4-fluorophenyl)-1-benzofuran-6-yl](methylsulfonyl)amino}butanoic acid] | 8.41 | 7.39 | 11 | 7.55 | 6.01 | 5.10 | 6.01 | 6.01 | 5.26 | 6.11 | 6.11 |  |  |  | 6.43 | 5.52 | 8 | 
COc1ccc(CN(c2cc3oc(-c4ccc(F)cc4)c(C4=NOC(C)N4)c3cc2C2CC2)S(C)(=O)=O)cc1 (stereo not shown) [Example 151, N-[5-cyclopropyl-2-(4-fluorophenyl)-3-(5-methyl-4,5-dihydro-1,2,4-oxadiazol-3-yl)-1-benzofuran-6-yl]-N-(4-methoxybenzyl)methanesulfonamide] | 8.05 | 6.99 | 11 | 7.32 | 6.92 | 5.64 | 6.92 | 6.92 | 5.82 | 7.52 | 7.52 |  |  |  | 7.48 | 5.53 | 88 | 
